Structures are written as SMILES. Values joined by “and” are separate entries in the source; they are usually repeats but may differ in a detail not shown here. Identical values can stand only once.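 Five compound concentrations were applied to cells in 96-well plates for 48 hours; endpoints were derived by simple linear interpolation of the resulting dose-response curve. Here, GI50 denotes the concentration required for 50% inhibition of growth. Definition used: TGI = concentration required for complete inhibition of growth.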 Where only a bound is given, the exact number is not on record here.

What all share (experiment): inhibition of tumour cell growth, NCI panel, 48 h
Assay [1] relates to HOP-92 NSCLC.
In assay [2] the test system is CCRF-CEM leukemia.
Assay [3] has as its system SF-295 CNS.
Assay [4] deals with NCI-H522 lung.
Assay [5] relates to ACHN renal.
Assay [6] relates to U251 CNS.
The subject of assay [7] is HCT-15 colon.
Assay [8] concerns MDA-MB-231 breast.
Assay [9] concerns NCI/ADR-RES ovarian.
Assay [10] relates to DU-145 prostate.

For `N#Cc1ccc(Sc2nc3ccccc3[nH]2)cc1`, the TGI in assay [1], in [2], in assay [3], in [4], in assay [5] and in assay [6] was more than 100 µM throughout.

Take `Cc1ccccc1C(CCCO)C(=O)O` (configuration not stated): the TGI in [1], in assay [2], in assay [3], in assay [4], in [5] and in [7] was more than 100 µM in each case. Also, the TGI in assay [6] is more than 100 µM.

In the case of `O=C(c1ccccc1)[C@H]1Nc2ccc(Cl)cc2[C@H]2CCC[C@@H]12`, the TGI in assay [3] is more than 100 µM; in assay [4] it was 59.9 µM; in [5] it was 57.9 µM; in assay [7] it was 98.3 µM; in assay [6] it was more than 100 µM.

In the case of `CCOC(=O)/C(=C/c1ccccn1)C(=O)c1ccccc1`, the TGI is 21.1 µM in [1]; more than 31 µM in [2]; 27.6 µM in assay [3]; 13.8 µM in [4]; more than 56.2 µM in assay [5]; 29.3 µM in [7]. Moreover, in assay [6], the TGI worked out at 27.4 µM.

As to `CCOC(=O)C1=C(NC)OCC1=O`, the TGI in [1], in [2], in [3], in [4], in [5] and in assay [7] was more than 100 µM in each case. In addition, the TGI in assay [6] is more than 100 µM.

Turning to `N#CC1CC(c2ccccc2)Nc2cc(Cl)ccc2N1` (configuration not stated), the TGI in [1] is more than 100 µM; in assay [2], more than 100 µM; in [3], more than 100 µM; in assay [4], 21.7 µM; in assay [5], more than 100 µM; in assay [7], more than 100 µM. Besides, the TGI in [6] was more than 100 µM.

Take `CCc1cccc(CC)c1NC(=O)/C(Cl)=C(/Cl)C(=O)O`: the TGI is 41.4 µM in assay [1]; 48.8 µM in [2]; more than 100 µM in assay [3]; 29.1 µM in assay [4]; 47.6 µM in assay [5]; 37.3 µM in assay [7]. This molecule also displayed a TGI in assay [6] of more than 69.8 µM.

For the molecule `COc1cc(/C=C2\NC(=O)C(Cc3cc(OC)c(OC)c(C)c3OC)N(C(C)=O)C2=O)c(OC)c(C)c1OC` (configuration not stated), the TGI in assay [1] was more than 100 µM; in assay [2] it was more than 100 µM; in [3], more than 100 µM; in assay [4], 79.2 µM; in assay [5], more than 100 µM; in [6], more than 100 µM.

For the molecule `COC(=O)C(C(=O)C(=O)Nc1c(Cl)cc([N+](=O)[O-])cc1Cl)c1csc(-n2nc(C3=CCCCC3)cc2-c2ccccc2)n1` (configuration not stated), the TGI in assay [1] was 77.7 µM; in assay [2] it was more than 100 µM; in [3], more than 100 µM; in assay [4], more than 100 µM; in [5], more than 100 µM; in assay [7] it was more than 100 µM. The same molecule yielded a TGI in [6] of more than 100 µM.

Consider `OC(c1ccccc1Br)(c1ccccc1Br)C(F)(F)F`, for which the TGI in assay [3] was 38.9 µM; in [4] it was 26.1 µM; in assay [5], 38.3 µM; in assay [7] it was more than 100 µM; in assay [6], 34.3 µM.

As to `COc1ccc2nc(NC(=O)C(=O)CC(=O)c3ccc([N+](=O)[O-])cc3)sc2c1`, the TGI in assay [1], in assay [2], in [4], in [5] and in [6] was more than 100 µM throughout.

For the molecule `CC(=O)[CH-]C(=O)c1ccccc1.[C-]#[O+].[C-]#[O+].[Ir]`, the GI50 in assay [3], in assay [7] and in assay [6] was more than 100 µM in each case. Further, the TGI in [3], in [7] and in assay [6] was more than 100 µM in each case.

Take `CCOC(=O)C1(C)CCC(C(C(=O)O)C(=O)O)CC1=O` (configuration not stated): the TGI in assay [1], in assay [2], in [3], in [4], in assay [5] and in assay [7] was more than 100 µM each time. This molecule also returned a TGI in assay [6] of more than 100 µM.

`COc1ccc(-c2c(C3=NCCCN3)nnn2-c2ccccc2)cc1`: the TGI in assay [1], in [2], in [3], in [4], in assay [5] and in assay [7] was more than 100 µM in each case. Besides, in [6], the TGI is more than 100 µM.

For the molecule `CCCC(=O)CC(C)C(=O)C(=O)NC12CC3CC(CC(C3)C1)C2` (configuration not stated), the TGI in assay [1], in assay [2], in [3], in [4], in assay [5] and in assay [7] was more than 100 µM in each case. Also, the TGI in assay [6] is more than 100 µM.

Turning to `COc1ccc2c(C(=O)O)cc3ccccc3c2c1OC`, the TGI in assay [1] is 44.3 µM; in assay [2], 88.4 µM; in assay [3] it was more than 100 µM; in assay [4], 26.8 µM; in [5], 29.8 µM; in assay [6], more than 100 µM.

Consider `O=C1NC(=O)C2C(=O)NC(=O)C1C2Cc1ccco1` (configuration not stated), for which the TGI in assay [1], in [2], in assay [3], in [4], in [5] and in [7] was more than 100 µM throughout.

Regarding `CC(=O)OCC(=O)[C@@]1(O)CC[C@H]2[C@@H]3C[C@H](C)C4=CC(=O)C=C[C@]4(C)[C@@]3(F)[C@@H](O)C[C@@]21C`, the TGI in [1], in [2], in [3], in [4], in [5] and in assay [7] was more than 100 µM in each case. The molecule also gave a TGI in [6] of more than 100 µM.

Turning to `COc1ccc2ccccc2c1C1=NC(C)(C)CO1`, the TGI in [1], in assay [2], in assay [3], in assay [4], in assay [5] and in [7] was more than 100 µM in each case. The molecule further came in with a TGI in assay [6] of more than 100 µM.

In the case of `c1ccc(C(c2ccccc2)c2ccccn2)cc1`, the TGI in [2], in assay [3], in assay [5], in assay [7] and in assay [6] was more than 100 µM throughout.

`O=C(CCCC(=O)Nc1ccc(Cl)cc1Cl)CC(=O)c1ccc2ccccc2c1`: the TGI in assay [1], in assay [2], in assay [3], in assay [5], in assay [7] and in [6] was more than 100 µM throughout.

For the molecule `Nc1nc(=S)c2c(ncn2CCO)[nH]1`, the TGI in [1], in [2], in assay [3], in [4], in [5] and in assay [7] was more than 100 µM each time. The TGI in assay [6] is more than 100 µM.

In the case of `O=C1CC(c2ccc(Cl)cc2)=Nc2ccccc2N1`, the TGI was 71.1 µM in assay [1]; 41.9 µM in assay [2]; more than 100 µM in assay [3]; more than 100 µM in assay [4]; more than 100 µM in assay [5]; more than 100 µM in [7]. In [6], this molecule gave a TGI of 75.6 µM.

Consider `COc1ccccc1Oc1nccc(-c2c(-c3ccc(F)cc3)ncn2C2CCNCC2)n1`, for which the GI50 is 17.5 µM in [3]; more than 25 µM in [4]; 15.4 µM in [5]; more than 25 µM in [7]; 14.5 µM in [8]; more than 24 µM in [6]. Besides, the GI50 in assay [9] and in assay [10] was more than 25 µM in each case. Also, the TGI in assay [3], in assay [4], in assay [5], in assay [7], in [8] and in assay [6] was more than 25 µM throughout. Further, the TGI in assay [9] and in [10] was more than 25 µM in each case.

With `O=C1N[C@@H]2CCCC[C@@H]2C12CCCCC2`, the TGI in [2], in assay [3], in [5] and in [6] was more than 100 µM throughout.

As for `COC(=O)C1=C(C(=O)OC)C2(c3ccccc3)OC1(c1ccccc1)c1cc3ccccc3cc12`, the TGI was determined as 2.44 µM in assay [1]; 4.55 µM in assay [2]; 19.8 µM in assay [3]; 3.07 µM in assay [5]; 3.88 µM in assay [7]; 18.8 µM in assay [6].

`COc1cc(/C=C/c2csnn2)cc(OC)c1OC`: the TGI in assay [1], in [2], in [3], in [4], in assay [5] and in assay [7] was more than 100 µM each time. In [6], this molecule showed a TGI of more than 100 µM.

Turning to `CCCCCCCCOCC(COC(=O)CCCCCCC)OC(=O)CCCCCCC` (configuration not stated), the TGI in assay [1], in [2], in assay [3], in [5], in assay [7] and in assay [6] was more than 100 µM throughout.

As to `CC(=O)Nc1ccc(C2CC(c3ccc([N+](=O)[O-])cc3)=Nc3ccccc3S2=O)cc1` (configuration not stated), the TGI was determined as 31.8 µM in [2]; 93.2 µM in assay [3]; 34.7 µM in [4]; 51.8 µM in [5]; 50.2 µM in [7].

For the molecule `CCOC(=O)c1ccc(N=Nc2ccc(N(CCC#N)CCC#N)cc2C)cc1`, the TGI in assay [2], in [3], in [4], in assay [5], in [7] and in assay [6] was more than 100 µM in each case.

In the case of `O=NN(CCCl)C(=O)NC1CCC(CC(=O)O)CC1` (configuration not stated), the TGI in assay [1] was more than 100 µM; in assay [2], > 100 µM and 62.2 µM; in [3], more than 100 µM; in [4] it was more than 100 µM; in assay [5], more than 100 µM; in assay [7] it was more than 100 µM. For the same molecule, the TGI in assay [6] and in [9] was more than 100 µM throughout.

In the case of `CC(=O)Oc1c(C(=O)[O-])cc(C(C)C)cc1C(C)C.CC(=O)Oc1c(C(=O)[O-])cc(C(C)C)cc1C(C)C.CC(=O)Oc1c(C(=O)[O-])cc(C(C)C)cc1C(C)C.CC(=O)Oc1c(C(=O)[O-])cc(C(C)C)cc1C(C)C.[Cu+2].[Cu+2]`, the GI50 in assay [1] is 45.5 µM; in [2], 20.5 µM; in assay [3], 24.4 µM; in assay [4] it was 18.5 µM; in [5], 75.2 µM; in [7], 27.5 µM. Also, the results for the GI50 in [8], in [6] and in assay [10] were 33.9 µM, 19.9 µM and 34.2 µM, respectively. Also, the TGI in [1] was more than 100 µM; in assay [2], 53.7 µM; in assay [3] it was 70.5 µM; in assay [4] it was 33.3 µM; in [5], more than 100 µM; in assay [7] it was more than 100 µM. Moreover, the TGI in [8] is more than 100 µM; in assay [6], 51.5 µM; in [10], more than 100 µM.

For the molecule `CC12OC(=O)C(C#N)C1(C)C1C(=O)CCCC12` (configuration not stated), the TGI in assay [2], in assay [3], in [5], in assay [7] and in [6] was more than 100 µM throughout.

Take `COCCN(CCOC)c1nc(-c2ccccc2)nc2ccccc12`: the GI50 is 4.23 µM in assay [2]; 30.9 µM in assay [3]; 21.6 µM in assay [4]; 59.4 µM in assay [8]; 70.1 µM in assay [6]; 21.3 µM in assay [9]. In [10], the GI50 is 36.9 µM. Moreover, the TGI in [2] is more than 100 µM; in [3] it was more than 100 µM; in assay [4], 52.7 µM; in assay [8], more than 100 µM; in assay [6], more than 100 µM; in assay [9] it was 61.2 µM. In addition, the TGI in assay [10] was more than 100 µM.

In the case of `C[C@H](C(=O)O)C(=O)NC(=O)N(Cc1ccccc1)N=O`, the TGI in [2], in assay [3], in assay [5], in assay [7] and in assay [6] was more than 100 µM throughout.
